From PubChem BioAssay AID651630 (Sanford-Burnham Center for Chemical Genomics, 2012) come the findings set out here.

The source made the active and inactive calls.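 Rule for the calls: active = lipid-stain IC50 at or below a set limit, with nuclear-stain toxicity IC50 at least five times higher; inactive = the rest.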

The test system of one assay is DAPI. Put plainly: triacylglycerol accumulation inhibitor potency, dose response, cell-based, panel, Nile Red and DAPI fluorescence, H9c2 (AID 651630).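 Note: cells exposed to compound overnight before fixation and staining.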 The following applies: H9c2 cells, DAPI nuclear fluorescence (cytotoxicity counter-readout), oleic acid.
The test system of the next assay is TAG. The description is as above. The following applies: H9c2 cells, Nile Red TAG fluorescence, oleic acid.

What is called IC50 is the concentration at which inhibition is half-maximal. `COc1cc(-c2noc(C)c2C#Cc2ccc(N)cc2)cc(OC)c1OC`: the results for the IC50 cytotoxicity (DAPI nuclear signal decrease) in the assay with DAPI (mean of runs), in the assay on DAPI (run 1) and in the assay on DAPI (run 2) were > 25 µM (inactive), above 25 µM and above 25 µM, respectively. Moreover, the results for the IC50 with TAG (run 1) and in the assay with TAG (run 2) were above 25 µM and 8.23 µM, respectively.
`COc1ccc(OC)c(NS(=O)(=O)c2ccc(N3CCCC3=O)cc2)c1`: the IC50 cytotoxicity (DAPI nuclear signal decrease) is > 25 µM (inactive) with DAPI (mean of runs), above 25 µM in the assay on DAPI (run 1) and above 25 µM in the assay on DAPI (run 2). Further, the IC50 is > 25 µM (inactive) in the assay on TAG (mean of runs), above 25 µM in the assay with TAG (run 1) and above 25 µM in the assay with TAG (run 2).
As for `CN(C)CC(O)c1ccc(C=Cc2ccc(Cl)cc2)cc1` (stereo not drawn), the results for the IC50 cytotoxicity (DAPI nuclear signal decrease) in the assay on DAPI (mean of runs), in the assay with DAPI (run 1) and with DAPI (run 2) were > 25 µM (inactive), above 25 µM and above 25 µM, respectively. The IC50 in the assay on TAG (mean of runs) is 13.8 µM; in the assay with TAG (run 1) it was 11.6 µM; in the assay with TAG (run 2), 16.1 µM.
For the compound `NC(Cc1ccc(Cl)cc1)c1csc(NC(=O)NCCc2ccccc2)n1` (stereo not drawn), the IC50 cytotoxicity (DAPI nuclear signal decrease) with DAPI (mean of runs) was 19.7 µM (inactive); in the assay on DAPI (run 1) it was 19 µM; in the assay with DAPI (run 2) it was 20.4 µM. Moreover, the IC50 in the assay on TAG (mean of runs) is > 25 µM (inactive); in the assay with TAG (run 1), above 25 µM; in the assay on TAG (run 2), above 25 µM.
In the case of `C=CCC[C@@H](Cc1ccc(F)cc1)C(=O)OC[C@H](Cc1c[nH]c2ccccc12)NC(=O)[C@@H](CC=C)CC(=O)N(CCO)Cc1ccccc1`, the IC50 cytotoxicity (DAPI nuclear signal decrease) in the assay on DAPI (mean of runs) is > 25 µM (inactive); in the assay on DAPI (run 1), above 25 µM; in the assay on DAPI (run 2) it was above 25 µM. Besides, the half-inhibitory concentration (IC50) was 13.1 µM in the assay with TAG (mean of runs), 10.7 µM with TAG (run 1) and 15.4 µM in the assay with TAG (run 2).
As for `CCOc1ccc(NC(=O)CN(C)C(=O)c2cc(-c3ccc(OC)cc3)nc3ccccc23)cc1OCC`, the IC50 cytotoxicity (DAPI nuclear signal decrease) in the assay with DAPI (mean of runs) is > 25 µM (inactive); with DAPI (run 1) it was above 25 µM; with DAPI (run 2) it was above 25 µM. In addition, the IC50 with TAG (mean of runs) was 10.1 µM; in the assay with TAG (run 1), 9.04 µM; in the assay on TAG (run 2), 11.1 µM.
Take `CCCCCc1cc(=O)oc2c(C(CCN(CC)CC)c3ccc(N(C)C)cc3)c(OC)cc(OC)c12` (stereo not drawn): the IC50 cytotoxicity (DAPI nuclear signal decrease) with DAPI (mean of runs) is > 25 µM (inactive); in the assay with DAPI (run 1), above 25 µM; in the assay with DAPI (run 2) it was above 25 µM. In addition, the figures for the IC50 in the assay on TAG (run 1) and in the assay with TAG (run 2) were above 25 µM and 17.5 µM, respectively.
Regarding `COc1ccc(-c2nn(-c3ccccc3)cc2/C=C/C(=O)OCC(=O)Nc2ccccc2C#N)cc1`, the IC50 cytotoxicity (DAPI nuclear signal decrease) in the assay on DAPI (mean of runs) was > 25 µM (inactive); with DAPI (run 1), above 25 µM; in the assay on DAPI (run 2), above 25 µM. In addition, the IC50 was 16.5 µM with TAG (run 1) and above 25 µM with TAG (run 2).
In the case of `O=[N+]([O-])c1ccc(Nc2nc(NC3CCCCC3)nc(N3CCCC3)n2)cc1`, the IC50 cytotoxicity (DAPI nuclear signal decrease) is > 25 µM (inactive) in the assay on DAPI (mean of runs), above 25 µM with DAPI (run 1) and above 25 µM in the assay with DAPI (run 2). Moreover, the results for the IC50 with TAG (run 1) and in the assay with TAG (run 2) were above 25 µM and 11.1 µM, respectively.
For `Cc1ccc(N2C(=O)C3CC(c4ccccc4)=C4C5C=CC(C6C(=O)N(c7ccc(C)cc7C)C(=O)C56)C4C3C2=O)c(C)c1` (stereo not drawn), the IC50 cytotoxicity (DAPI nuclear signal decrease) in the assay with DAPI (mean of runs) is > 25 µM (inactive); in the assay with DAPI (run 1), above 25 µM; in the assay with DAPI (run 2), above 25 µM. Besides, the IC50 in the assay on TAG (run 1) is 22.3 µM; in the assay with TAG (run 2) it was above 25 µM.
Regarding `Cc1ccc(-n2cc(CNCCCn3cccn3)c(-c3cccc(C)c3)n2)cc1`, the IC50 cytotoxicity (DAPI nuclear signal decrease) with DAPI (mean of runs) was > 25 µM (inactive); in the assay with DAPI (run 1) it was above 25 µM; in the assay with DAPI (run 2) it was above 25 µM. Moreover, the IC50 with TAG (mean of runs) is > 25 µM (inactive); in the assay with TAG (run 1), above 25 µM; with TAG (run 2) it was above 25 µM.
On to `COc1cc(CNC(=O)Nc2nc(C(N)Cc3ccc(C(F)(F)F)cc3)cs2)cc(OC)c1OC` (stereo not drawn), for which the IC50 cytotoxicity (DAPI nuclear signal decrease) is > 25 µM (inactive) with DAPI (mean of runs), above 25 µM in the assay with DAPI (run 1) and above 25 µM in the assay with DAPI (run 2). Also, the IC50 was 8.38 µM in the assay with TAG (mean of runs), 8.1 µM in the assay with TAG (run 1) and 8.66 µM in the assay on TAG (run 2).
As for `COc1ccc(-c2nc(NC(=O)C3CCN(c4nc5ccccc5o4)CC3)sc2C)cc1`, the IC50 cytotoxicity (DAPI nuclear signal decrease) in the assay with DAPI (mean of runs) was > 25 µM (inactive); with DAPI (run 1), above 25 µM; in the assay with DAPI (run 2) it was above 25 µM. Moreover, the figures for the IC50 with TAG (mean of runs), in the assay with TAG (run 1) and with TAG (run 2) were 13 µM, 15.6 µM and 10.4 µM, respectively.
On to `CCCCOc1ccccc1C1CC(=O)NC2=C1C(=O)CCC2` (stereo not drawn), for which the values for the IC50 cytotoxicity (DAPI nuclear signal decrease) in the assay with DAPI (mean of runs), in the assay on DAPI (run 1) and in the assay on DAPI (run 2) were > 25 µM (inactive), above 25 µM and above 25 µM, respectively. Besides, the IC50 with TAG (mean of runs) is 15.9 µM (inactive); in the assay on TAG (run 1), 9.56 µM; with TAG (run 2), 22.3 µM.
Turning to `Cc1ccccc1NC(=O)CSc1nc2ccc(Nc3nc(N4CCOCC4)nc(N4CCOCC4)n3)cc2s1`, the IC50 cytotoxicity (DAPI nuclear signal decrease) in the assay on DAPI (mean of runs) is > 25 µM (inactive); with DAPI (run 1) it was above 25 µM; with DAPI (run 2) it was above 25 µM. In addition, the IC50 in the assay with TAG (mean of runs) is 10.7 µM; in the assay with TAG (run 1), 10.6 µM; in the assay on TAG (run 2) it was 10.8 µM.
Turning to `Cc1ccsc1-c1nc(C(N)=O)c2[nH]c(=O)n(-c3ccc(Cl)cc3)c2n1`, the IC50 cytotoxicity (DAPI nuclear signal decrease) with DAPI (mean of runs) is > 25 µM (inactive); in the assay on DAPI (run 1), above 25 µM; with DAPI (run 2), above 25 µM. Further, the IC50 with TAG (mean of runs) was > 25 µM (inactive); in the assay on TAG (run 1), above 25 µM; with TAG (run 2), above 25 µM.
Turning to `Cc1onc(-c2ccccc2)c1C(=O)Nc1cc(C(F)(F)F)ccc1N1CCOCC1`, the IC50 cytotoxicity (DAPI nuclear signal decrease) with DAPI (mean of runs) is > 25 µM (inactive); with DAPI (run 1), above 25 µM; in the assay with DAPI (run 2), above 25 µM. In addition, the IC50 with TAG (mean of runs) is 20.1 µM (inactive); in the assay on TAG (run 1), 15.4 µM; in the assay on TAG (run 2) it was 24.8 µM.
Consider `COC(=O)Nc1nc2ccc(Sc3ccccc3)cc2[nH]1`, for which the values for the IC50 cytotoxicity (DAPI nuclear signal decrease) in the assay with DAPI (mean of runs), with DAPI (run 1) and in the assay on DAPI (run 2) were > 25 µM (inactive), above 25 µM and above 25 µM, respectively. The IC50 in the assay with TAG (mean of runs) is > 25 µM (inactive); in the assay on TAG (run 1) it was above 25 µM; in the assay on TAG (run 2), above 25 µM.
Consider `O=C(CSc1cccc2cccnc12)Nc1ccc(S(=O)(=O)N2CCOCC2)cc1`, for which the IC50 cytotoxicity (DAPI nuclear signal decrease) in the assay with DAPI (mean of runs) is > 25 µM (inactive); in the assay on DAPI (run 1) it was above 25 µM; in the assay with DAPI (run 2), above 25 µM. Further, the values for the IC50 in the assay with TAG (mean of runs), with TAG (run 1) and in the assay on TAG (run 2) were > 25 µM (inactive), above 25 µM and above 25 µM, respectively.
For `C=CC[C@@H](CC(=O)N(CCO)Cc1ccccc1)C(=O)N[C@H](COC(=O)[C@@H](CC=C)CC(=O)OC(C)(C)C)Cc1ccccc1`, the figures for the IC50 cytotoxicity (DAPI nuclear signal decrease) in the assay on DAPI (mean of runs), in the assay on DAPI (run 1) and in the assay on DAPI (run 2) were > 25 µM (inactive), above 25 µM and above 25 µM, respectively. For the same compound, the IC50 in the assay with TAG (mean of runs) is 5.86 µM; in the assay with TAG (run 1), 5.71 µM; in the assay on TAG (run 2) it was 6.02 µM.
With `CCCSc1ccc2nc(NC(=O)OC)[nH]c2c1`, the IC50 cytotoxicity (DAPI nuclear signal decrease) was > 25 µM (inactive) with DAPI (mean of runs), above 25 µM in the assay on DAPI (run 1) and above 25 µM in the assay on DAPI (run 2). In addition, the IC50 was > 25 µM (inactive) with TAG (mean of runs), above 25 µM in the assay on TAG (run 1) and above 25 µM in the assay on TAG (run 2).
Regarding `O=C(Nc1ccc(-c2csc(Nc3ccccc3)n2)cc1)c1cccc(C(F)(F)F)c1`, the IC50 cytotoxicity (DAPI nuclear signal decrease) was > 25 µM (inactive) in the assay with DAPI (mean of runs), above 25 µM in the assay with DAPI (run 1) and above 25 µM in the assay with DAPI (run 2). Also, the values for the IC50 in the assay with TAG (run 1) and in the assay with TAG (run 2) were 15.3 µM and above 25 µM, respectively.
On to `COC(=O)c1cc(C(=O)N2CCN(c3cccc(Cl)c3)CC2)cc([N+](=O)[O-])c1`, for which the IC50 cytotoxicity (DAPI nuclear signal decrease) in the assay with DAPI (mean of runs) is > 25 µM (inactive); with DAPI (run 1) it was above 25 µM; with DAPI (run 2) it was above 25 µM. Besides, the IC50 with TAG (run 1) was 22.4 µM; with TAG (run 2) it was above 25 µM.
`CCn1c(SCC(=O)Nc2nc(-c3ccc(C)cc3)cs2)nnc1-c1ccccc1O`: the IC50 cytotoxicity (DAPI nuclear signal decrease) in the assay on DAPI (run 1) and with DAPI (run 2) was above 25 µM each time. The IC50 with TAG (mean of runs) was 1.68 µM; in the assay on TAG (run 1), 1.65 µM; in the assay on TAG (run 2) it was 1.71 µM.
Regarding `Cc1nn(-c2ccc([N+](=O)[O-])cc2)c2c1C(c1ccc(OC(F)F)cc1)N1C(=N2)C(=O)Nc2ccccc21` (stereo not drawn), the IC50 cytotoxicity (DAPI nuclear signal decrease) in the assay with DAPI (mean of runs) is > 25 µM (inactive); in the assay on DAPI (run 1), above 25 µM; in the assay on DAPI (run 2), above 25 µM. Also, the figures for the IC50 in the assay with TAG (mean of runs), in the assay on TAG (run 1) and in the assay on TAG (run 2) were 8.6 µM, 6.39 µM and 10.8 µM, respectively.
As for `Cc1ccc2c(c1)N(C(=O)CCC(=O)NCCCN1CCC(Cc3ccccc3)CC1)CCO2`, the IC50 cytotoxicity (DAPI nuclear signal decrease) with DAPI (mean of runs) is 22.3 µM (inactive); in the assay with DAPI (run 1), 20.2 µM; in the assay with DAPI (run 2) it was 24.3 µM. Moreover, the IC50 was 18.7 µM (inactive) in the assay with TAG (mean of runs), 19.5 µM with TAG (run 1) and 17.9 µM in the assay on TAG (run 2).
